# Measurements taken from patent US20100227859A1, “TRICYCLIC COMPOUNDS AS MATRIX METALLOPROTEINASE INHIBITORS” (priority 2007, published 2010).
# Target: purified human MMP-12 enzyme (Homo sapiens, UniProt P39900)
# Experiment: MMP-12 FRET assay
# Format: biochemical
# Conditions: substrate 20 μM, room temperature
# Summary of the method: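 Enzyme pre-incubated 30 min at room temperature with compound in 50 mM HEPES pH 7.4, 100 mM NaCl, 5 mM CaCl2, 0.005% Brij-35, 10% DMSO final. Reaction started with 20 μM MCA-Pro-Leu-Gly-Leu-Dpa(DNP)-Ala-Arg, and initial cleavage rate read over 30 min (λex 325, λem 395 nm). IC50 from slope-factor inhibition fit.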
# purified human MMP-12 enzyme, sequence (P39900 106-470): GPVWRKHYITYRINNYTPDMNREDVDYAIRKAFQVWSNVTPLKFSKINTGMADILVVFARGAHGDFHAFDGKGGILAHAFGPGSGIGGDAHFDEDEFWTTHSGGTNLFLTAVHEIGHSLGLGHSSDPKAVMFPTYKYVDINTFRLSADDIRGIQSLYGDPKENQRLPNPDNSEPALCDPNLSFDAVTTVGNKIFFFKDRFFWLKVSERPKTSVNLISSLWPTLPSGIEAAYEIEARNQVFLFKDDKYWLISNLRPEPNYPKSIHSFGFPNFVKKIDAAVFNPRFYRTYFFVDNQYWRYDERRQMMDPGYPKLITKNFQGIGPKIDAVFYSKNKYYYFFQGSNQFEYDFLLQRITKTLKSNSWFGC
row,Structure (SMILES),IC50 [nM]
1,"CCC(C)Cn1cc(-c2ccc3c(c2)oc2ccc(S(=O)(=O)N[C@@H](C(=O)O)C(C)C)cc23)cn1 (stereo partly drawn) [Compound 170, (2R)-3-methyl-2-(7-(1-(2-methylbutyl)-1H-pyrazol-4-yl)dibenzo[b,d]furan-2-sulfonamido)butanoic acid]",5.2
2,"Cc1nn(C)c(C)c1-c1ccc2oc3cc(S(=O)(=O)N[C@H](C(=O)O)C(C)C)ccc3c2c1 [Compound 160, (S)-3-methyl-2-(8-(1,3,5-trimethyl-1H-pyrazol-4-yl)dibenzo[b,d]furan-3-sulfonamido)butanoic acid]",22
3,"CC(C)[C@@H](NS(=O)(=O)c1ccc2oc3cc(-c4cc5ccccc5o4)ccc3c2c1)C(=O)O [Compound 119, (R)-2-(7-(benzofuran-2-yl)dibenzo[b,d]furan-2-sulfonamido)-3-methylbutanoic acid]",8.3
4,"CC(C)(C)c1nc(-c2ccc3oc4cc(S(=O)(=O)N[C@H](Cc5c[nH]c6ccccc56)C(=O)O)ccc4c3c2)no1 [Compound 256, (R)-2-(8-(5-tert-butyl-1,2,4-oxadiazol-3-yl)dibenzo[b,d]furan-3-sulfonamido)-3-(1H-indol-3-yl)propanoic acid]",129
5,"CC(C)[C@H](NS(=O)(=O)c1ccc2c(c1)oc1ccc(-c3ccc(-c4nnn[nH]4)s3)cc12)C(=O)O [Compound 207, (S)-2-(8-(5-(1H-tetrazol-5-yl)thiophen-2-yl)dibenzo[b,d]furan-3-sulfonamido)-3-methylbutanoic acid]",8.4
6,"CC(C)[C@H](NS(=O)(=O)c1ccc2c(c1)oc1ccc(-c3sccc3CN(C)C)cc12)C(=O)O [Compound 49, (S)-2-(8-(3-((dimethylamino)methyl)thiophen-2-yl)dibenzo[b,d]furan-3-sulfonamido)-3-methylbutanoic acid]",228
7,"Cc1nnc(-c2ccc3c(c2)oc2ccc(S(=O)(=O)N[C@@H](C(=O)O)C(C)C)cc23)s1 [Compound 292, (R)-3-methyl-2-(7-(5-methyl-1,3,4-thiadiazol-2-yl)dibenzo[b,d]furan-2-sulfonamido)butanoic acid]",43
8,"CC(C)[C@@H](NS(=O)(=O)c1ccc2oc3cc(-c4noc(C(C)(C)C)n4)ccc3c2c1)C(=O)O [Compound 133, (R)-2-(7-(5-tert-butyl-1,2,4-oxadiazol-3-yl)dibenzo[b,d]furan-2-sulfonamido)-3-methylbutanoic acid]",8
9,"Cc1nn(C)c(C)c1-c1ccc2c(c1)oc1ccc(S(=O)(=O)N[C@@H](C(=O)O)C(C)C)cc12 [Compound 174, (R)-3-methyl-2-(7-(1,3,5-trimethyl-1H-pyrazol-4-yl)dibenzo[b,d]furan-2-sulfonamido)butanoic acid]",227
10,"CC(C)NC(=N)c1ccc2oc3cc(S(=O)(=O)N[C@H](C(=O)O)C(C)C)ccc3c2c1 [Compound 76, (S)-2-(8-(N-isopropylcarbamimidoyl)dibenzo[b,d]furan-3-sulfonamido)-3-methylbutanoic acid]",18
11,"O=C(O)CNS(=O)(=O)c1ccc2c(c1)oc1ccc(-c3nccs3)cc12 [Compound 251, 2-(8-(thiazol-2-yl)dibenzo[b,d]furan-3-sulfonamido)acetic acid]",17
12,"Cc1nc(CC(C)C)sc1-c1ccc2c(c1)oc1ccc(S(=O)(=O)N[C@@H](C(=O)O)C(C)C)cc12 [Compound 245, (R)-2-(7-(2-isobutyl-4-methylthiazol-5-yl)dibenzo[b,d]furan-2-sulfonamido)-3-methylbutanoic acid]",13
13,"CC(C)CCn1cc(-c2ccc3oc4cc(S(=O)(=O)N[C@H](C(=O)O)C(C)C)ccc4c3c2)cn1 [Compound 20, (S)-2-(8-(1-isopentyl-1H-pyrazol-4-yl)dibenzo[b,d]furan-3-sulfonamido)-3-methylbutanoic acid]",4
14,"CC(C)[C@H](NS(=O)(=O)c1ccc2c(c1)sc1ccc(-c3ccncc3)cc12)C(=O)O [Compound 56, (S)-3-methyl-2-(8-(pyridin-4-yl)dibenzo[b,d]thiophene-3-sulfonamido)butanoic acid]",8.4
15,"CC(C)[C@H](NS(=O)(=O)c1ccc2c(c1)oc1ccc(-c3ccc4c(c3)C(C)(C)OC(=O)N4)cc12)C(=O)O [Compound 4, (S)-2-(8-(4,4-dimethyl-2-oxo-2,4-dihydro-1H-benzo[d][1,3]oxazin-6-yl)dibenzo[b,d]furan-3-sulfonamido)-3-methylbutanoic acid]",12.2
16,"CC(C)Cc1ncc(-c2ccc3c(c2)oc2cc(S(=O)(=O)N[C@H](C(=O)O)C(C)C)ccc23)s1 [Compound 249, (S)-2-(7-(2-isobutylthiazol-5-yl)dibenzo[b,d]furan-3-sulfonamido)-3-methylbutanoic acid]",7.8
17,"Cc1n[nH]c(C)c1-c1ccc2sc3cc(S(=O)(=O)N[C@H](C(=O)O)C(C)C)ccc3c2c1 [Compound 41, (S)-2-(8-(3,5-dimethyl-1H-pyrazol-4-yl)dibenzo[b,d]thiophene-3-sulfonamido)-3-methylbutanoic acid]",77
18,"CC(C)[C@H](NS(=O)(=O)c1ccc2c(c1)sc1ccc(-c3ccc(-c4ccc(-c5ccc(Cl)nc5)nc4)nc3)cc12)C(=O)O [Compound 54, (S)-2-[8-(6″-Chloro-[2,3′;6′,3″]terpyridin-5-yl)-dibenzothiophene-3-sulfonylamino]-3-methyl-butanoic acid]",483
19,"CCCN(Cc1cnc(-c2ccc3oc4cc(S(=O)(=O)N[C@H](C(=O)O)C(C)C)ccc4c3c2)s1)CC1CC1 [Compound 213, (S)-2-(8-(5-(((cyclopropylmethyl)(propyl)amino)methyl)thiazol-2-yl)dibenzo[b,d]furan-3-sulfonamido)-3-methylbutanoic acid]",40
20,"CC(C)[C@@H](NS(=O)(=O)c1ccc2oc3cc(-c4nc(C(F)(F)F)c(Cl)s4)ccc3c2c1)C(=O)O [Compound 295, (R)-2-(7-(5-chloro-4-(trifluoromethyl)thiazol-2-yl)dibenzo[b,d]furan-2-sulfonamido)-3-methylbutanoic acid]",15

# The next compounds have a lower IC50 than those just listed; values first:
row,IC50 [nM],Structure (SMILES)
1,2,"CC(C)[C@H](NS(=O)(=O)c1ccc2c(c1)oc1ccc(-c3nnn(C)n3)cc12)C(=O)O [Compound 132, (S)-3-methyl-2-(8-(2-methyl-2H-tetrazol-5-yl)dibenzo[b,d]furan-3-sulfonamido)butanoic acid]"
2,1.9,"CC(C)[C@H](NS(=O)(=O)c1ccc2c(c1)oc1cc(C(=N)NO)ccc12)C(=O)O [Compound 186, (S)-2-(7-(N-hydroxycarbamimidoyl)dibenzo[b,d]furan-3-sulfonamido)-3-methylbutanoic acid]"
3,< 1.5,"CC(C)[C@H](NS(=O)(=O)c1ccc2c(c1)oc1ccc(-c3cnc(Cl)s3)cc12)C(=O)O [Compound 179, (S)-2-(8-(2-chlorothiazol-5-yl)dibenzo[b,d]furan-3-sulfonamido)-3-methylbutanoic acid]"
4,< 1.5,"CC(C)[C@@H](NS(=O)(=O)c1ccc2oc3cc(-c4ccsc4)ccc3c2c1)C(=O)O [Compound 97, (R)-3-methyl-2-(7-(thiophen-3-yl)dibenzo[b,d]furan-2-sulfonamido)butanoic acid]"
5,3.3,"CC(C)[C@@H](NS(=O)(=O)c1ccc2oc3cc(-c4noc(CC5CCCC5)n4)ccc3c2c1)C(=O)O [Compound 191, (R)-2-(7-(5-(cyclopentylmethyl)-1,2,4-oxadiazol-3-yl)dibenzo[b,d]furan-2-sulfonamido)-3-methylbutanoic acid]"
6,< 1.5,"COc1ccc(-c2ccc3oc4cc(S(=O)(=O)N[C@H](C(=O)O)C(C)C)ccc4c3c2)cn1 [Compound 10, (S)-2-(8-(6-methoxypyridin-3-yl)dibenzo[b,d]furan-3-sulfonamido)-3-methylbutanoic acid]"
7,< 1.5,"CC(C)[C@H](NS(=O)(=O)c1ccc2c(c1)oc1cc(-c3nc(C(F)(F)F)c(Cl)s3)ccc12)C(=O)O [Compound 233, (S)-2-(7-(5-chloro-4-(trifluoromethyl)thiazol-2-yl)dibenzo[b,d]furan-3-sulfonamido)-3-methylbutanoic acid]"
8,2.6,"CC(C)[C@H](NS(=O)(=O)c1ccc2c(c1)sc1ccc(-c3cnn(C)c3)cc12)C(=O)O [Compound 40, (S)-3-methyl-2-(8-(1-methyl-1H-pyrazol-4-yl)dibenzo[b,d]thiophene-3-sulfonamido)butanoic acid]"
9,2,"CC(C)[C@H](NS(=O)(=O)c1ccc2c(c1)oc1ccc(-c3ccc(C(F)(F)F)cc3)cc12)C(=O)O [Compound 311, (S)-3-methyl-2-(8-(4-(trifluoromethyl)phenyl)dibenzo[b,d]furan-3-sulfonamido)butanoic acid]"
10,< 1.5,"COc1ncc(-c2ccc3oc4cc(S(=O)(=O)N[C@H](C(=O)O)C(C)C)ccc4c3c2)cn1 [Compound 153, (S)-2-(8-(2-methoxypyrimidin-5-yl)dibenzo[b,d]furan-3-sulfonamido)-3-methylbutanoic acid]"
11,2.2,"CC(C)[C@@H](NS(=O)(=O)c1ccc2oc3cc(-c4ccc(Br)s4)ccc3c2c1)C(=O)O [Compound 144, (R)-2-(7-(5-bromothiophen-2-yl)dibenzo[b,d]furan-2-sulfonamido)-3-methylbutanoic acid]"
12,< 1.5,"C/C=C/c1ccc2oc3cc(S(=O)(=O)N[C@H](C(=O)O)C(C)C)ccc3c2c1 [Compound 66, (S,E)-3-methyl-2-(8-(prop-1-enyl)dibenzo[b,d]furan-3-sulfonamido)butanoic acid]"
13,2.7,"COc1ccc2nc(-c3ccc4oc5cc(S(=O)(=O)N[C@H](C(=O)O)C(C)C)ccc5c4c3)sc2c1 [Compound 208, (S)-2-(8-(6-methoxybenzo[d]thiazol-2-yl)dibenzo[b,d]furan-3-sulfonamido)-3-methylbutanoic acid]"
14,1.7,"CC(C)[C@H](NS(=O)(=O)c1ccc2c(c1)oc1cc(-c3nc4ccccc4s3)ccc12)C(=O)O [Compound 226, (S)-2-(7-(benzo[d]thiazol-2-yl)dibenzo[b,d]furan-3-sulfonamido)-3-methylbutanoic acid]"
